Assay results: ChEMBL document CHEMBL1133784, “Inhibition of hepatitis C virus NS3 protease activity by product-based peptides is dependent on helicase domain” (Bioorg Med Chem Lett, 2001)
Where a SMILES comes first, the peptide text is derived from it. [ ]: non-standard residue; d: D form. Dip = N[C@H](C(=O)O)C(c1ccccc1)c1ccccc1; 2Nal = N[C@@H](Cc1ccc2ccccc2c1)C(=O)O; dGla = N[C@H](CC(C(=O)O)C(=O)O)C(=O)O; Cha = N[C@@H](CC1CCCCC1)C(=O)O

Assays:
[1] = biological target: T1, NS3 (Hepatitis C virus, UniProt A3EZJ3); test: Inhibitory activity against hepatitis C virus (HCV) NS3 protease (full-length); design: species or system Hepacivirus hominis
T1 sequence (A3EZJ3 whole entry, the tested form may be a part): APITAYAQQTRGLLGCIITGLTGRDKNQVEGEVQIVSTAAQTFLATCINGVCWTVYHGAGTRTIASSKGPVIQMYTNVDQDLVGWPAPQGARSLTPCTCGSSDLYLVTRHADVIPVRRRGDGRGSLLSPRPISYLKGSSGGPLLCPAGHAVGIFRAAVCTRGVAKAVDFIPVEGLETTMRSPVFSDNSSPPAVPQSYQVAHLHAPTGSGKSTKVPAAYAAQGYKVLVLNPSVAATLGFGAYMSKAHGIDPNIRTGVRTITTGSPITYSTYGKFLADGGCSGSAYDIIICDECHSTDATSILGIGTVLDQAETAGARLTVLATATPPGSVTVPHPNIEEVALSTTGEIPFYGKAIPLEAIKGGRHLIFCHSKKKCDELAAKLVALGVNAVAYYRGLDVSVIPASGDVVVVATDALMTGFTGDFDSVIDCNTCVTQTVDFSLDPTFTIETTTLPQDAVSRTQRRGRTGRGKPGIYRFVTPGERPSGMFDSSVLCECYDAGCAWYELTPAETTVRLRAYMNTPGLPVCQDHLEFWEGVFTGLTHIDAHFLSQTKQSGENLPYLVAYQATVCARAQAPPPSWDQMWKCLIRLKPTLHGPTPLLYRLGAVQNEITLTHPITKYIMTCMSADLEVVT

[2] = biological target: T1, NS3; test: Inhibitory activity against hepatitis C virus (HCV) NS3 protease (isolated domain); design: species or system Hepacivirus hominis
[3] = biological target: NS3 (Hepatitis C virus) (UniProt A3EZJ3); test: Inhibitory activity against hepatitis C virus (HCV) NS3 protease (isolated domain) at a concentration of 6 uM; details: Hepacivirus hominis
Chain of NS3 (Hepatitis C virus) (A3EZJ3 as listed by the source): as the sequence (A3EZJ3 whole entry, the tested form may be a part) above

| Molecule | Ki [1] | Ki [2] | inhibition [3] |
| --- | --- | --- | --- |
| CC(C)C[C@H](NC(=O)[C@@H](CCC(=O)O)NC(=O)[C@@H](N)CC(=O)O)C(=O)N[C@@H](CCC(=O)O)C(=O)N[C@@H](CC1CCCCC1)C(=O)N[C@@H](CS)C(=O)O | 1540 nM | – | – |
| CC(=O)N[C@@H](CC(=O)O)C(=O)N[C@@H](CCC(=O)O)C(=O)N[C@@H](CC(C)C)C(=O)N[C@@H](CCC(=O)O)C(=O)N[C@@H](CC1CCCCC1)C(=O)N[C@@H](CS)C(=O)O | 490 nM | 60 nM | – |
| CC(=O)N[C@@H](CC(=O)O)C(=O)N[C@H](CCC(=O)O)C(=O)N[C@@H](CC(C)C)C(=O)N[C@@H](CCC(=O)O)C(=O)N[C@@H](CC1CCCCC1)C(=O)N[C@@H](CS)C(=O)O | 180 nM | 23 nM | – |
| CSCC[C@H](NC(=O)[C@H](CCC(=O)O)NC(=O)[C@H](CC(=O)O)NC(C)=O)C(=O)N[C@@H](CCC(=O)O)C(=O)N[C@@H](Cc1ccc2ccccc2c1)C(=O)N[C@@H](CS)C(=O)O (Ac-DEME[2Nal]C-OH) | 1040 nM | 180 nM | – |
| CSCC[C@H](NC(=O)[C@H](CCC(=O)O)NC(=O)[C@H](CC(=O)O)NC(C)=O)C(=O)N[C@@H](CCC(=O)O)C(=O)N[C@@H](CC1CCCCC1)C(=O)N[C@@H](CS)C(=O)O (Ac-DEME[Cha]C-OH) | 440 nM | 400 nM | – |
| CC(=O)N[C@@H](CC(=O)O)C(=O)N[C@@H](CCC(=O)O)C(=O)N[C@H](C(=O)N[C@@H](CCC(=O)O)C(=O)N[C@@H](CC1CCCCC1)C(=O)N[C@@H](CS)C(=O)O)C(c1ccccc1)c1ccccc1 (Ac-DE[Dip]E[Cha]C-OH) | 41 nM | 25 nM | – |
| CC[C@H](C)[C@H](NC(=O)[C@@H](NC(=O)[C@H](CCC(=O)O)NC(=O)[C@H](CC(=O)O)NC(C)=O)C(c1ccccc1)c1ccccc1)C(=O)N[C@@H](CC1CCCCC1)C(=O)N[C@@H](CS)C(=O)O (Ac-DE[Dip]I[Cha]C-OH) | 220 nM | 30 nM | – |
| CC(=O)N[C@@H](CC(=O)O)C(=O)N[C@@H](CCC(=O)O)C(=O)N[C@H](C(=O)N[C@@H](CCCCN)C(=O)N[C@@H](CC1CCCCC1)C(=O)N[C@@H](CS)C(=O)O)C(c1ccccc1)c1ccccc1 (Ac-DE[Dip]K[Cha]C-OH) | 1240 nM | – | 8% |
| CC[C@H](C)[C@H](NC(=O)[C@H](CC(C)C)NC(=O)[C@@H](CC(C(=O)O)C(=O)O)NC(=O)[C@H](CC(=O)O)NC(C)=O)C(=O)N[C@@H](CC1CCCCC1)C(=O)N[C@@H](CS)C(=O)O (Ac-D[dGla]LI[Cha]C-OH) | 12 nM | 0.75 nM | – |
| CC(=O)N[C@@H](CCC(=O)O)C(=O)N[C@H](C(=O)N[C@@H](CCC(=O)O)C(=O)N[C@@H](CC1CCCCC1)C(=O)N[C@@H](CS)C(=O)O)C(c1ccccc1)c1ccccc1 (Ac-E[Dip]E[Cha]C-OH) | 330 nM | 700 nM | – |
| CC[C@H](C)[C@H](NC(=O)[C@@H](NC(=O)[C@H](CCC(=O)O)NC(C)=O)C(c1ccccc1)c1ccccc1)C(=O)N[C@@H](CC1CCCCC1)C(=O)N[C@@H](CS)C(=O)O (Ac-E[Dip]I[Cha]C-OH) | 1000 nM | 1200 nM | – |
| CC(=O)N[C@@H](CCC(=O)O)C(=O)N[C@@H](CC1CCCCC1)C(=O)N[C@@H](CS)C(=O)O (Ac-Glu-[Cha]-Cys-OH) | 4100 nM | 230000 nM | – |
| CC[C@H](C)[C@H](NC(C)=O)C(=O)N[C@@H](CC1CCCCC1)C(=O)N[C@@H](CS)C(=O)O (Ac-Ile-[Cha]-Cys-OH) | 25000 nM | – | – |
| CC(=O)N[C@H](C(=O)N[C@@H](CCC(=O)O)C(=O)N[C@@H](CC1CCCCC1)C(=O)N[C@@H](CS)C(=O)O)C(c1ccccc1)c1ccccc1 (Ac-[Dip]E[Cha]C-OH) | 1100 nM | 15000 nM | – |
| CC[C@H](C)[C@H](NC(=O)[C@@H](NC(C)=O)C(c1ccccc1)c1ccccc1)C(=O)N[C@@H](CC1CCCCC1)C(=O)N[C@@H](CS)C(=O)O (Ac-[Dip]I[Cha]C-OH) | 2100 nM | 50000 nM | – |
| Ac-DEMEEC-OH | 360 nM | 500 nM | – |
